Data reported in patent US12168010B2, “Use of co-enzyme antagonists to slow metabolism” (priority 2020, dated 2024).
Entries after “also recorded” stand apart in the source; their conditions may differ.

Columns and labels:
[1] = In vivo pharmacokinetics: oxythiamine in the brain after B-OT administration
[2] = Study in dogs on the conversion of B-OT to OT (toxicokinetics of OT in plasma, tolerability); type: in vivo, dogs (Beagle breed)
Method: FIG. 1: Change in individual plasma concentrations of OT with time (over 24 hours) in male beagle dogs. The y-axis indicates—the plasma concentration in ng/ml. • On the x-axis the time is indicated in hours (h=hours) • (a) Change in individual plasma concentrations on day 1 after administration of a single dose of B-OT in an amount of 1 mg/kg/day. • The symbols mean: • —⋄—=dog no. 3001 • —□—=dog no. 3002 • (b) Change in individual plasma concentrations on day 1 after administration of a single dose of B-OT in an amount of 0.5 mg/kg/day. • The symbols mean: • —Δ—=dog no. 4001 • —∘—=dog no. 4002 • (c) Change in individual plasma concentrations at day 7 after seven days of administration of single doses of B-OT in an amount of 0.5 mg/kg/day. • The symbols mean: • —Δ—=dog no. 4001 • —∘—=dog no. […] • (d) Change in mean plasma concentrations on day 1 after administration of a single dose of B-OT at 1 mg/kg/day, and on day 1 and day 7 after daily administration of single doses of B-OT in an amount of 0.5 mg/kg/day. • The symbols mean: • —□—=group 3, 1.0 mg/kg/day, day 1 • —Δ—=Group 4, 0.5 mg/kg/day, day 1. • —∘—=group 4, 0.5 mg/kg/day, day 7.
Male and female dogs (Beagle breed) were administered B-OT (benfo-oxythiamine) orally once daily for periods of one to seven days in amounts of 1 mg/kg/day or 0.5 mg/kg/day.
The toxicokinetics of the active metabolite OT (oxythiamine) was determined in plasma samples obtained on the first day “Day 1” and on the seventh day “Day 7” after the start of administration. The measurement results obtained are shown graphically in FIGS. 1 (a) to (d).

[3] = rat, in vivo, po
Text: This means that there is a very efficient cleavage of B-OT into OT, and a high percentage amount of OT is present in the blood. Thus, B-OT is a pharmacokinetically good and orally applicable substance that allows good and efficient delivery of OT. Since OT usually must/should be administered intraperitoneally, the oral administration of B-OT represents an important advantage in comparison. The bioavailability and absorption of B-OT is also more suitable for human therapy due to the more lipophilic basic structure of B-OT compared to OT. Compared to OT, B-OT is thus better, easier and safer to use as a drug.

SARS-CoV-2 = assay: Curative trials: B-OT in addition to standard therapy in patients with covid-19 pneumonia
[4] = Comparison of B-OT amounts per kg body weight in dogs and humans versus rats and mice; type: in vivo
[5] = Change in pulse beat (heart rate) in dogs after administration of B-OT; type: in vivo; conditions: over 24 hours, B-OT 0.05, 0.15, 0.5 mg/kg/day
Method: FIG. 2: Graph showing the change in plus beat with time in dogs after administration of different amounts (doses) of B-OT. On the y-axis, the pulse beat (heart rate) is given in beats per minute (bpm). On the x-axis, the time is given in hours. • The symbols mean: • —●=0 mg/kg/day—Benfooxythiamine=0 mg/kg/day—B-OT • —□—=0.05 mg/kg/day—Benfooxythiamine=0.05 mg/kg/day—B-OT • —Δ—=0.15 mg/kg/day—Benfooxythiamine=0.15 mg/kg/day—B-OT • −⋄—=0.5 mg/kg/day—Benfooxythiamine=0.5 mg/kg/day—B-OT
By slowing down (throttling) the metabolism, GSSV also causes a reduction in the energy released with it. The body attempts to compensate for the lower energy release by increasing the pulse rate in order to transport more oxygen into the body so that more energy can be released as a result. The increase in the patient's pulse beat is an indication and a suitable parameter that GSSV has inhibited energy release and to what extent. If there is a sharp increase in pulse rate, e.g., in a person a pulse rate above 90, countermeasures may be necessary to increase energy release again.

[6] = all patients with additional B-OT therapy

In the case of `Cc1ncc(C[n+]2csc(CCO)c2C)c(=O)[nH]1` [OT, oxythiamine], the “oxythiamine in the brain after B-OT is administered” value [1] is reported as “present in significant amounts in the brain”, the “time of maximum OT plasma concentration (Tmax) after administration of B-OT” value ([2]; Beagle dogs, oral B-OT, all applied doses) is reported as “between one and two hours” and the “systemic exposure to OT / B-OT” value ([2]; dogs treated orally with B-OT) is reported as “achieved in all animals”. For the same molecule, the “increase in plasma concentrations of oxythiamine (OT) with B-OT dose” value ([2]; dogs, stepwise increase of B-OT dose from 0.2 mg/kg to 1.0 mg/kg) was “approximately linearly proportional to the increase in dose” and the “increase in plasma OT based on dose-normalized Cmax and partial AUC” value ([2]; male beagle dogs, oral B-OT single doses, over the range of applied doses) was “less than dose-proportional increase”.

For `C/C(=C(/CCOP(=O)(O)O)SC(=O)c1ccccc1)N(C=O)Cc1cnc(C)[nH]c1=O` [B-OT, benfo-oxythiamine], the “B-OT (prodrug form) measurable in the blood” value [3] was 0%, the “share of total amount of B-OT administered measurable in the blood in the form of oxythiamine (OT)” value [3] was 44% and the “viral pneumonia infiltrates in lung computed tomography” value (SARS-CoV-2; after 7 days of B-OT therapy versus before) was “marked decrease in infiltrates; also recorded: marked decrease of infiltrates; also recorded: significant decrease in the previously pronounced infiltrates”. For the same molecule, the “C-reactive Protein (CRP)” value (SARS-CoV-2; [6]) was “significant reduction”, the “Interleukin-6 (IL-6)” value (SARS-CoV-2; [6]) was “significant reduction” and the required inpatient stay (SARS-CoV-2; compared with the overall collective of more than 700 patients) was “on average one week less”. For the same molecule, the “side effects attributable to B-OT” value (SARS-CoV-2; four covid-19 pneumonia patients, 6 mg B-OT per day perorally for seven days) was “None of the patients showed side effects”, the “need for intensive care” value (SARS-CoV-2; four covid-19 pneumonia patients, 6 mg B-OT per day perorally for seven days plus standard therapy) was “none of the four patients required intensive care” and the “need for respiratory support therapy beyond nasal cannula or mask oxygen insufflation” value (SARS-CoV-2; four patients with additional B-OT therapy, versus overall collective of more than 700 patients) was “none of the four patients”. The “lung computed tomography at follow-up” value (SARS-CoV-2; patient 2, one month after the end of therapy) was “stable findings”, the “reaction of dogs and humans to B-OT amounts per kg applied to rats and mice” value ([4]; rodent amounts per kilogram body weight used in dogs and humans) was “in many cases led to death” and the “dose usable in humans and dogs compared to published amounts used in rats and mice” value ([4]; to avoid serious, sometimes fatal, courses) was “approximately two hundredfold lower dose”. The “pulse beat (heart rate)” value [5] was “significant increase in pulse beat”, the “behavior and physical condition” value ([2]; dog, in vivo) was “No relevant abnormalities” and the body weight ([2]; dog, in vivo) was “no significant variations in body weight”. The “systemic exposure to OT / B-OT” value ([2]; dog, in vivo, po) was “exposed to the active metabolite OT but not to the preform (prodrug) B-OT” and the tolerability of treatment ([2]; dogs, oral B-OT 1 or 0.5 mg/kg/day, one to seven days) was “well tolerated”.
